Laboratory results reported in the supplement of paper PMC10307832.

Legend:
Assay in all cases: relative viability (nuclei count vs DMSO), 5 days (fraction); higher = more cells survive
ChaGo-K-1 = tested on: ChaGo-K-1
How it was run: (§1)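 One day after seeding in 1536-well plates, lung cancer cell lines were dosed by pin tool. Dosing was either single-drug or a fixed anchor-drug dose plus five library-drug doses (not always all listed) in √10 steps. After 5 days, nuclei were stained in one fix-and-stain step and counted on 4× images, and relative viability is the nuclei count of treated wells over that of vehicle wells, given as the median of duplicate plates.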

EMC-BAC-2 = tested on: EMC-BAC-2
How it was run: as §1

EPLC-272H = tested on: EPLC-272H
How it was run: as §1

HCC-44 = tested on: HCC-44
How it was run: as §1

HOP-62 = tested on: HOP-62
How it was run: as §1

LCLC-103H = tested on: LCLC-103H
How it was run: as §1

LOU-NH91 = tested on: LOU-NH91
How it was run: as §1

NCI-H1437 = tested on: NCI-H1437
How it was run: as §1

NCI-H1793 = tested on: NCI-H1793
How it was run: as §1

NCI-H2009 = tested on: NCI-H2009
How it was run: as §1

NCI-H2023 = tested on: NCI-H2023
How it was run: as §1

NCI-H2126 = tested on: NCI-H2126
How it was run: as §1

NCI-H2170 = tested on: NCI-H2170
How it was run: as §1

NCI-H2347 = tested on: NCI-H2347
How it was run: as §1

NCI-H23 = tested on: NCI-H23
How it was run: as §1

NCI-H2405 = tested on: NCI-H2405
How it was run: as §1

NCI-H441 = tested on: NCI-H441
How it was run: as §1

NCI-H460 = tested on: NCI-H460
How it was run: as §1

NCI-H520 = tested on: NCI-H520
How it was run: as §1

NCI-H647 = tested on: NCI-H647
How it was run: as §1

NCI-H650 = tested on: NCI-H650
How it was run: as §1

NCI-H727 = tested on: NCI-H727
How it was run: as §1

SW 1573 = tested on: SW 1573
How it was run: as §1

Structure (SMILES): O=C(O)CCCCC(CCSCc1ccccc1)SCc1ccccc1 (stereo not given) [CPI-613] + CC(=O)Nc1cccc(-n2c(=O)n(C3CC3)c(=O)c3c(Nc4ccc(I)cc4F)n(C)c(=O)c(C)c32)c1 [Trametinib] (partner 0.02 µM)
- relative viability (ChaGo-K-1; first compound 5 µM): 0.853
- relative viability (ChaGo-K-1; first compound 15.81 µM): 0.876
- relative viability (ChaGo-K-1; first compound 50 µM): 0.847
- relative viability (ChaGo-K-1; first compound 158.11 µM): 0.29
- relative viability (ChaGo-K-1; first compound 500 µM): 0.391
- relative viability (EMC-BAC-2; first compound 5 µM): 0.928
- relative viability (EMC-BAC-2; first compound 15.81 µM): 0.884
- relative viability (EMC-BAC-2; first compound 50 µM): 0.906
- relative viability (EMC-BAC-2; first compound 158.11 µM): 0.521
- relative viability (EMC-BAC-2; first compound 500 µM): 0.639
- relative viability (EPLC-272H; first compound 5 µM): 0.233
- relative viability (EPLC-272H; first compound 15.81 µM): 0.232
- relative viability (EPLC-272H; first compound 50 µM): 0.29
- relative viability (EPLC-272H; first compound 158.11 µM): 0.222
- relative viability (EPLC-272H; first compound 500 µM): 0.268
- relative viability (HCC-44; first compound 5 µM): 1.04
- relative viability (HCC-44; first compound 15.81 µM): 1.03
- relative viability (HCC-44; first compound 50 µM): 1.08
- relative viability (HCC-44; first compound 158.11 µM): 0.649
- relative viability (HCC-44; first compound 500 µM): 0.62
- relative viability (HOP-62; first compound 5 µM): 0.394
- relative viability (HOP-62; first compound 15.81 µM): 0.402
- relative viability (HOP-62; first compound 50 µM): 0.351
- relative viability (HOP-62; first compound 158.11 µM): 0.267
- relative viability (HOP-62; first compound 500 µM): 0.129
- relative viability (LCLC-103H; first compound 5 µM): 0.67
- relative viability (LCLC-103H; first compound 15.81 µM): 0.662
- relative viability (LCLC-103H; first compound 50 µM): 0.727
- relative viability (LCLC-103H; first compound 158.11 µM): 0.422
- relative viability (LCLC-103H; first compound 500 µM): 0.372
- relative viability (LOU-NH91; first compound 5 µM): 0.767
- relative viability (LOU-NH91; first compound 15.81 µM): 0.723
- relative viability (LOU-NH91; first compound 50 µM): 0.775
- relative viability (LOU-NH91; first compound 158.11 µM): 0.775
- relative viability (LOU-NH91; first compound 500 µM): 0.674
- relative viability (NCI-H1437; first compound 5 µM): 0.49
- relative viability (NCI-H1437; first compound 15.81 µM): 0.431
- relative viability (NCI-H1437; first compound 50 µM): 0.467
- relative viability (NCI-H1437; first compound 158.11 µM): 0.0999
- relative viability (NCI-H1437; first compound 500 µM): 0.0568
- relative viability (NCI-H1793; first compound 5 µM): 0.429
- relative viability (NCI-H1793; first compound 15.81 µM): 0.413
- relative viability (NCI-H1793; first compound 50 µM): 0.405
- relative viability (NCI-H1793; first compound 158.11 µM): 0.225
- relative viability (NCI-H1793; first compound 500 µM): 0.0839
- relative viability (NCI-H2009; first compound 5 µM): 0.319
- relative viability (NCI-H2009; first compound 15.81 µM): 0.257
- relative viability (NCI-H2009; first compound 50 µM): 0.302
- relative viability (NCI-H2009; first compound 158.11 µM): 0.081
- relative viability (NCI-H2009; first compound 500 µM): 0.027
- relative viability (NCI-H2023; first compound 5 µM): 0.57
- relative viability (NCI-H2023; first compound 15.81 µM): 0.605
- relative viability (NCI-H2023; first compound 50 µM): 0.499
- relative viability (NCI-H2023; first compound 158.11 µM): 0.0445
- relative viability (NCI-H2023; first compound 500 µM): 0.0048
- relative viability (NCI-H2126; first compound 5 µM): 0.528
- relative viability (NCI-H2126; first compound 15.81 µM): 0.538
- relative viability (NCI-H2126; first compound 50 µM): 0.615
- relative viability (NCI-H2126; first compound 158.11 µM): 0.232
- relative viability (NCI-H2126; first compound 500 µM): 0.193
- relative viability (NCI-H2170; first compound 5 µM): 0.95
- relative viability (NCI-H2170; first compound 15.81 µM): 0.968
- relative viability (NCI-H2170; first compound 50 µM): 0.892
- relative viability (NCI-H2170; first compound 158.11 µM): 0.686
- relative viability (NCI-H2170; first compound 500 µM): 0.546
- relative viability (NCI-H2347; first compound 5 µM): 0.256
- relative viability (NCI-H2347; first compound 15.81 µM): 0.232
- relative viability (NCI-H2347; first compound 50 µM): 0.259
- relative viability (NCI-H2347; first compound 158.11 µM): 0.22
- relative viability (NCI-H2347; first compound 500 µM): 0.206
- relative viability (NCI-H23; first compound 5 µM): 0.394
- relative viability (NCI-H23; first compound 15.81 µM): 0.25
- relative viability (NCI-H23; first compound 50 µM): 0.393
- relative viability (NCI-H23; first compound 158.11 µM): 0.11
- relative viability (NCI-H23; first compound 500 µM): 0.0106
- relative viability (NCI-H2405; first compound 5 µM): 0.633
- relative viability (NCI-H2405; first compound 15.81 µM): 0.633
- relative viability (NCI-H2405; first compound 50 µM): 0.619
- relative viability (NCI-H2405; first compound 158.11 µM): 0.494
- relative viability (NCI-H2405; first compound 500 µM): 0.479
- relative viability (NCI-H441; first compound 5 µM): 0.426
- relative viability (NCI-H441; first compound 15.81 µM): 0.429
- relative viability (NCI-H441; first compound 50 µM): 0.343
- relative viability (NCI-H441; first compound 158.11 µM): 0.322
- relative viability (NCI-H441; first compound 500 µM): 0.003
- relative viability (NCI-H460; first compound 5 µM): 0.128
- relative viability (NCI-H460; first compound 15.81 µM): 0.132
- relative viability (NCI-H460; first compound 50 µM): 0.116
- relative viability (NCI-H460; first compound 158.11 µM): 0.0278
- relative viability (NCI-H460; first compound 500 µM): 0.0229
- relative viability (NCI-H520; first compound 5 µM): 0.691
- relative viability (NCI-H520; first compound 15.81 µM): 0.708
- relative viability (NCI-H520; first compound 50 µM): 0.552
- relative viability (NCI-H520; first compound 158.11 µM): 0.16
- relative viability (NCI-H520; first compound 500 µM): 0.0957
- relative viability (NCI-H647; first compound 5 µM): 0.378
- relative viability (NCI-H647; first compound 15.81 µM): 0.388
- relative viability (NCI-H647; first compound 50 µM): 0.38
- relative viability (NCI-H647; first compound 158.11 µM): 0.0824
- relative viability (NCI-H647; first compound 500 µM): 0.0504
- relative viability (NCI-H650; first compound 5 µM): 0.969
- relative viability (NCI-H650; first compound 15.81 µM): 0.994
- relative viability (NCI-H650; first compound 50 µM): 0.849
- relative viability (NCI-H650; first compound 158.11 µM): 0.929
- relative viability (NCI-H650; first compound 500 µM): 0.889
- relative viability (NCI-H727; first compound 5 µM): 0.393
- relative viability (NCI-H727; first compound 15.81 µM): 0.389
- relative viability (NCI-H727; first compound 50 µM): 0.396
- relative viability (NCI-H727; first compound 158.11 µM): 0.374
- relative viability (NCI-H727; first compound 500 µM): 0.339
- relative viability (SW 1573; first compound 5 µM): 0.557
- relative viability (SW 1573; first compound 15.81 µM): 0.433
- relative viability (SW 1573; first compound 50 µM): 0.482
- relative viability (SW 1573; first compound 158.11 µM): 0.133
- relative viability (SW 1573; first compound 500 µM): 0.0735
